What follows are compounds tested against soluble guanylate cyclase (human GUCYA3 and GUCYB3) overexpressed in CHO cells (Homo sapiens (Human), UniProt Q02108+Q02153) (assay: CHO cellular assay (cGMP production, Cisbio cGMP HTRF kit)). Conditions: CHO GUCY clone 8E10, cGMP production, assay buffer with 1 mM IBMX and 20 uM ODQ, 1 h room temperature; minimum quantification limit 0.5 nM (listed 0.5 nM means ≤0.5 nM); read-out: EC50.
Format: cell-based
In short: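 EC50 was derived by 4-parameter sigmoidal fit of cGMP levels, read by HTRF against a standard curve. Compounds were applied for 1 h at room temperature, in buffer with 20 uM ODQ, 1 mM IBMX and 0.1% BSA (0.5% DMSO final). The cells were a stable CHO-K1 line (clone 8E10) overexpressing human GUCYA3 and GUCYB3, seeded at 3000/well.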

Sequence of soluble guanylate cyclase (human GUCYA3 and GUCYB3) overexpressed in CHO cells (Q02108 whole entry partner): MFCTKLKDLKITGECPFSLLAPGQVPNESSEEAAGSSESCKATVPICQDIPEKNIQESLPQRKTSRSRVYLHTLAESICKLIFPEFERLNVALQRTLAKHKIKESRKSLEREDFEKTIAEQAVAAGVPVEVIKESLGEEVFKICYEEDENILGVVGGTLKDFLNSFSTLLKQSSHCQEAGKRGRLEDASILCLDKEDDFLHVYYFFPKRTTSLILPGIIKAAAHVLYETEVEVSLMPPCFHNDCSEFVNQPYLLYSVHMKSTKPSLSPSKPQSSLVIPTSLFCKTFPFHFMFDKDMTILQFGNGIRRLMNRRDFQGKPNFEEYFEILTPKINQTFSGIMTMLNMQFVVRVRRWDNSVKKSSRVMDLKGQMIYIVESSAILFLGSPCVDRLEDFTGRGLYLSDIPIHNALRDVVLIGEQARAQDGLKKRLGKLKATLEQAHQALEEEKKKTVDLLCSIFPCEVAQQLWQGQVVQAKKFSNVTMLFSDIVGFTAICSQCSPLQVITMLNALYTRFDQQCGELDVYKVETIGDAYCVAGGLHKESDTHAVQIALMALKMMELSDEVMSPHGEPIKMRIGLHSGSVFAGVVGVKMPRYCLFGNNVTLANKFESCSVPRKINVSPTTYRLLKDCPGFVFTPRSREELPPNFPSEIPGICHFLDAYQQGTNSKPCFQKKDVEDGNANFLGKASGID
Sequence of soluble guanylate cyclase (human GUCYA3 and GUCYB3) overexpressed in CHO cells (Q02153 whole entry): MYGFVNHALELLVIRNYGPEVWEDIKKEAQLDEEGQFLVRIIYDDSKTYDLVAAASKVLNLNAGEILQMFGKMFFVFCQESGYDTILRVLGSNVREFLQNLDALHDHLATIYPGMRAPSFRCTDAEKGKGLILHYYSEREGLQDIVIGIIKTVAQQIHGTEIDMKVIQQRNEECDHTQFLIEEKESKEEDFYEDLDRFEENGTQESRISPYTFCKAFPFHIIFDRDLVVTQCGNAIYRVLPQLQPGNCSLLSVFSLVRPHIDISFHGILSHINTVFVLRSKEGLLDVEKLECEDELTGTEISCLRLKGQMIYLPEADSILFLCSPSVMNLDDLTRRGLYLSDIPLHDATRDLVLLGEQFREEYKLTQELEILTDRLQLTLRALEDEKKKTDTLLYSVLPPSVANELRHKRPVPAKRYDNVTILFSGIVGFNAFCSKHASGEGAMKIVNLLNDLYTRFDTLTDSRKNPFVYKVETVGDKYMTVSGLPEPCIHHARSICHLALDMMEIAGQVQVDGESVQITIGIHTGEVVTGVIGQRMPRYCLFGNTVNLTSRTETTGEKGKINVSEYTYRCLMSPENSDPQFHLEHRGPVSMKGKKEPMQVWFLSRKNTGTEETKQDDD

`CCc1c(C(=O)O)cnn1-c1cccc(-c2cccc3c2C(Nc2ccc(C4CCN(C(=O)C5CC5)CC4)cc2C)CC3)n1` (single isomer, unassigned; (+)) [Example 10a] and `Cc1cc(C2CCN(C(=O)C3CC3)CC2)ccc1NC1CCc2cccc(-c3cccc(-n4ncc(C(=O)O)c4C(F)F)n3)c21` (single isomer, unassigned; (+)) [(+)-53-4, (+)-1-(6-(3-((4-(1-(cyclopropanecarbonyl)piperidin-4-yl)-2-methylphenyl)amino)-2,3-dihydro-1H-inden-4-yl)pyridin-2-yl)-5-(difluoromethyl)-1H-pyrazole-4-carboxylic acid] cannot be ordered by EC50: at most 0.5 nM for the first, at most 0.5 nM for the second.

Going from `CCc1cc(O[C@H]2CCc3cccc(-c4cccc(-n5ncc(C(=O)O)c5CC)n4)c32)ccc1C1CCN(C(=O)OCc2ccccc2)CC1` [Example 64-1, (S)-1-(6-(3-(4-(1-((Benzyloxy)carbonyl)pipendin-4-yl)-3-ethylphenoxy)-2,3-dihydro-1H-inden-4-yl)pyridin-2-yl)-5-ethyl-1H-pyrazole-4-carboxylic acid] to `CCc1cc(O[C@H]2CCc3cccc(-c4cccc(-n5ncc(C(=O)O)c5CC)n4)c32)ccc1C1CCN(C(=O)C(C)CCO)CC1` (single isomer, unassigned) [Example 32a], the EC50 falls from 2 nM to at most 0.5 nM. The second is the more potent here.

`Cc1cc(C2CCN(C(=O)C3CC3)CC2)ccc1NC1CCc2cccc(-c3cccc(-n4ncc(C(=O)O)c4C(F)(F)F)c3)c21` (single isomer, unassigned; (+)) [Example 6. b). (+), (+)-1-(3-(3-((4-(1-(cyclopropanecarbonyl)piperidin-4-yl)-2-methylphenyl)amino)-2,3-dihydro-1H-inden-4-yl)phenyl)-5-(trifluoromethyl)-1H-pyrazole-4-carboxylic acid] and `Cc1cc(C2CCN(C(=O)C3CC3)CC2)ccc1NC1CCc2cccc(-c3cccc(-n4ncc(C(=O)O)c4C)c3)c21` (single isomer, unassigned; (+)) [44 (+), (+)-1-(3-(3-((4-(1-(cyclopropanecarbonyl)piperidin-4-yl)-2-methylphenyl)amino)-2,3-dihydro-1H-inden-4-yl)phenyl)-5-methyl-1H-pyrazole-4-carboxylic acid] cannot be ordered by EC50: at most 0.5 nM for the first, at most 0.5 nM for the second.

Compared with `Cc1cc(C2CCN(C(=O)C3CC3)CC2)ccc1NC1COc2cccc(-c3cccc(-n4ncc(C(=O)O)c4C)n3)c21` (single isomer, unassigned; (+)) [Example 34a, (+)-1-(6-(3-((4-(1-(Cyclopropanecarbonyl)piperidin-4-yl)-2-methylphenyl)amino)-2,3-dihydrobenzofuran-4-yl)pyridin-2-yl)-5-methyl-1H-pyrazole-4-carboxylic Acid], `CCc1c(C(=O)O)cnn1-c1cccc(-c2cccc3c2C(Nc2ccc(C4CCN(C(=O)C5CC5)CC4)cc2C)CC3)n1` (single isomer, unassigned; (-)) [Example 10b, (−)-1-(6-(3-((4-(1-(Cyclopropanecarbonyl)piperidin-4-yl)-2-methylphenyl)amino)-2,3-dihydro-1H-inden-4-yl)pyridin-2-yl)-5-ethyl-1H-pyrazole-4-carboxylic Acid] is higher in EC50: at most 0.5 nM for the first, 49 nM for the second.

Compared with `CCc1cc(O[C@H]2CCc3cccc(-c4cccc(-n5ncc(C(=O)O)c5C(F)(F)F)n4)c32)ccc1C1CCN(C(=O)C2CC2)CC1` [Example 5-3], `Cc1cc(C2CCN(C(=O)C3CC3)CC2)ccc1OC1CCc2cccc(-c3cccc(-n4ncc(C(=O)O)c4C(F)(F)F)n3)c21` (single isomer, unassigned; (+)) [Example 3a, (+)-1-(6-(3-(4-(1-(cyclopropanecarbonyl)piperidin-4-yl)-2-methylphenoxy)-2,3-dihydro-1H-inden-4-yl)pyridin-2-yl)-5-(trifluoromethyl)-1H-pyrazole-4-carboxylic Acid] is higher in EC50: at most 0.5 nM for the first, 1 nM for the second. The first is the more potent here.

`Cc1cc(C2CCN(C(=O)C3CC3)CC2)ccc1O[C@H]1CCc2cccc(-c3cccc(-n4ncc(C(=O)O)c4C)n3)c21` [Example 5-6] and `CCc1c(C(=O)O)cnn1-c1cccc(-c2cccc3c2[C@@H](Oc2ccc(C4CCN(C(=O)C5CC5)CC4)cc2C)CC3)n1` [Example 5-7] cannot be ordered by EC50: at most 0.5 nM for the first, at most 0.5 nM for the second.

First: CCc1c(C(=O)O)cnn1-c1cccc(-c2cccc3c2[C@@H](Oc2ccc(C4CCN(CC(F)(F)F)CC4)cc2C)CC3)n1 [Example 5-8]
Second: CCc1cc(O[C@H]2CCc3cccc(-c4cccc(-n5ncc(C(=O)O)c5CC)n4)c32)ccc1C1CCN(S(C)(=O)=O)CC1 [Example 64-8, (S)-5-Ethyl-1-(6-(3-(3-ethyl-4-(1-(methylsulfonyl)piperidin-4-yl)phenoxy)-2,3-dihydro-1H-inden-4-yl)pyridin-2-yl)-1H-pyrazole-4-carboxylic acid]
The EC50 of the first is higher: 1 nM for the first, at most 0.5 nM for the second.

First: Cc1cc(C2CCN(C(=O)C3CC3)CC2)ccc1NC1CCc2cccc(-c3cccc(-n4ncc(C(=O)O)c4C(F)(F)F)n3)c21 (single isomer, unassigned; (-)) [Example (−)-8. b), (−)-1-(6-(3-((4-(1-(cyclopropanecarbonyl)piperidin-4-yl)-2-methylphenyl)amino)-2,3-dihydro-1H-inden-4-yl)pyridin-2-yl)-5-(trifluoromethyl)-1H-pyrazole-4-carboxylic Acid]
Second: Cc1cc(C2CCN(C(=O)C3CC3)CC2)ccc1NC1CCc2cccc(-c3cccc(-n4ncc(C(=O)O)c4C(F)(F)F)c3)c21 (single isomer, unassigned; (-)) [Example 6. b). (−), (−)-1-(3-(3-((4-(1-(cyclopropanecarbonyl)piperidin-4-yl)-2-methylphenyl)amino)-2,3-dihydro-1H-inden-4-yl)phenyl)-5-(trifluoromethyl)-1H-pyrazole-4-carboxylic acid]
The EC50 of the first is 2.2-fold higher: 53 nM for the first, 24 nM for the second.

Compared with `Cc1cc(C2CCN(C(=O)C3CC3)CC2)ccc1O[C@H]1CCc2cccc(-c3cccc(-n4ncc(C(=O)O)c4C)c3)c21` [Example 2, (+)-(S)-1-(3-(3-(4-(1-(Cyclopropanecarbonyl)piperidin-4-yl)-2-methylphenoxy)-2,3-dihydro-1H-inden-4-yl)phenyl)-6-methyl-1H-pyrazole-4-carboxylic Acid], `Cc1cc(C2CCN(C(=O)C3CC3)CC2)ccc1OC1CCc2cccc(-c3cccc(-n4ncc(C(=O)O)c4C(F)(F)F)c3)c21` (single isomer, unassigned; (-)) [Example (−)-1. b), (−)-1-(3-(3-(4-(1-(cyclopropanecarbonyl)piperidin-4-yl)-2-methylphenoxy)-2,3-dihydro-1H-inden-4-yl)phenyl)-5-(trifluoromethyl)-1H-pyrazole-4-carboxylic acid] is 10-fold higher in EC50: 1 nM for the first, 10 nM for the second. The first is the more potent here.

Going from `C=C(C)OC(=O)N1CCC(c2ccc(NC3CCc4cccc(-c5cccc(-n6ncc(C(=O)O)c6C)n5)c43)c(C)c2)CC1` (stereo not drawn) [Example 52-6, 5-Methyl-1-(6-(3-((2-methyl-4-(1-((prop-1-en-2-yloxy)carbonyl)piperidin-4-yl)phenyl)amino)-2,3-dihydro-1H-inden-4-yl)pyridin-2-yl)-1H-pyrazole-4-carboxylic acid] to `CCC(=O)N1CCC(c2ccc(NC3CCc4cccc(-c5cccc(-n6ncc(C(=O)O)c6C)n5)c43)c(C)c2)CC1` (single isomer, unassigned; (-)) [(−)-46-2], the EC50 rises from 1.4 nM to 160 nM (110-fold).

`CCc1cc(CN2CC(C)c3cccc(-c4cccc(-n5ncc(C(=O)O)c5C(F)(F)F)n4)c32)ccc1C1CCN(C(=O)C2CC2)CC1` (single isomer, unassigned; (+)) [Example 19a] and `CCc1cc(CN2CCc3cccc(-c4cccc(-n5ncc(C(=O)O)c5C(F)(F)F)n4)c32)ccc1C1CCN(C(=O)C2CC2)CC1` [Example 13] cannot be ordered by EC50: at most 0.5 nM for the first, at most 0.5 nM for the second.

`CCc1cc(NC2CCc3cccc(-c4cccc(-n5ncc(C(=O)O)c5CC)n4)c32)ccc1C1CCN(C(=O)C2CC2)CC1` (single isomer, unassigned; (+)) [(+)-53-1, (+)-1-(6-(3-((4-(1-(cyclopropanecarbonyl)piperidin-4-yl)-3-ethylphenyl)amino)-2,3-dihydro-1H-inden-4-yl)pyridin-2-yl)-5-ethyl-1H-pyrazole-4-carboxylic acid] and `CCc1cc(CN2CCc3cccc(-c4cccc(-n5ncc(C(=O)O)c5CC)n4)c32)ccc1C1CCN(C(=O)C2CC2)CC1` [Example 14, 1-(6-(1-(4-(1-(Cyclopropanecarbonyl)piperidin-4-yl)-3-ethylbenzyl)indolin-7-yl)pyridin-2-yl)-5-ethyl-1H-pyrazole-4-carboxylic Acid] cannot be ordered by EC50: at most 0.5 nM for the first, at most 0.5 nM for the second.

Going from `CCc1cc(CC2CCc3cccc(-c4cccc(-n5ncc(C(=O)O)c5C)c4)c32)ccc1C1CCN(C(=O)C2CC2)CC1` (single isomer, unassigned; (-)) [55-1 (−), (−)-1-(3-(3-(4-(1-(cyclopropanecarbonyl)piperidin-4-yl)-3-ethylbenzyl)-2,3-dihydro-1H-inden-4-yl)phenyl)-5-methyl-1H-pyrazole-4-carboxylic acid] to `Cc1c(NC2CCc3cccc(-c4cccc(-n5ncc(C(=O)O)c5C)n4)c32)ccc(C2CCN(C(=O)CC3CC3)CC2)c1F` (single isomer, unassigned) [Example (+) or (−)-46-4, 1-(6-(3-((4-(1-(2-cyclopropylacetyl)piperidin-4-yl)-3-fluoro-2-methylphenyl)amino)-2,3-dihydro-1H-inden-4-yl)pyridin-2-yl)-5-methyl-1H-pyrazole-4-carboxylic acid], the EC50 falls from 15 nM to 1.4 nM (11-fold). The second is the more potent here.

Same assay, conditions: EC50 (nM)

`CCCOC(=O)N1CCC(c2ccc(O[C@H]3CCc4cccc(-c5cccc(-n6ncc(C(=O)O)c6CC)n5)c43)cc2CC)CC1` [Example 64-4, (S)-5-Ethyl-1-(6-(3-(3-ethyl-4-(1-(propoxycarbonyl)piperidin-4-yl)phenoxy)-2,3-dihydro-1H-inden-4-yl)pyridin-2-yl)-1H-pyrazole-4-carboxylic acid] gave an EC50 of at most 0.5 nM.

— patent US10550102B2, “Indane and indoline derivatives and the use thereof as soluble guanylate cyclase activators” (NOVARTIS AG, priority 2014, dated 2020)
